Data taken from EP3977982A1 (Acerus Biopharma Inc., priority 2011, dated 2012).
Like-named read-outs stand apart in the source and are kept apart here.

Key:
[1] = nasal, dissolved in polyethylene glycol (200 mg/ml); cited from earlier work
[2] = cited from earlier work
[3] = formulated in ethanol/propylene glycol/water; cited from earlier work
[4] = nasal, cited from earlier work
[5] = drug substance; cited from earlier work
[6] = Solubility of testosterone in water, solvents, oils and vehicles
[7] = pKa assessment of testosterone; conditions: inferred from molecular structure, no protonatable groups
[8] = biological target: T1, sex hormone binding globulin (SHBG) (Homo sapiens, UniProt P04278); conditions: cited from earlier work
T1 sequence (P04278 30-402): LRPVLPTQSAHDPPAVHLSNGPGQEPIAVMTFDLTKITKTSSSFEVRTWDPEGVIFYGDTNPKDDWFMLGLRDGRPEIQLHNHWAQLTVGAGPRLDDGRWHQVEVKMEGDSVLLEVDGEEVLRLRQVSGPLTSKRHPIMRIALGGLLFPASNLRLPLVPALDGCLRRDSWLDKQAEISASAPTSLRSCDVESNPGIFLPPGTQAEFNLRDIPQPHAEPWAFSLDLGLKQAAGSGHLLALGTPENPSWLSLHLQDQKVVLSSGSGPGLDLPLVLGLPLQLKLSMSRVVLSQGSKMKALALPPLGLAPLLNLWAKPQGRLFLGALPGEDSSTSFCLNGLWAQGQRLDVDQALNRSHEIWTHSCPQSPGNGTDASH

Structure (SMILES): CC(=O)[C@H]1CC[C@H]2[C@@H]3CCC4=CC(=O)CC[C@]4(C)[C@H]3CC[C@]12C [progesterone]
- Tmax [1]: 30 min
- duration of serum level [1]: at least 8 hours
- serum level decrease ([2]; nasal powder mixtures progesterone/cyclodextrin): ≤ 20 min
- Tmax ([2]; nasal powder mixtures, co-ground and co-lyophilized progesterone/cyclodextrin): 2 to 5 min
- Tmax [3]: 5.5 min

Structure (SMILES): CN(C)CC(=O)O[C@H]1CC[C@H]2[C@@H]3CCC4=CC(=O)CC[C@]4(C)[C@H]3CC[C@]12C [testosterone 17β-N,N-dimethylglycinate]
- time to peak plasma concentrations ([4]; 25 mg dose): ≤ 12 min
- time to peak plasma concentrations ([4]; 50 mg dose): ≤ 20 min
- elimination half-lives [4]: about 55 min

Structure (SMILES): C[C@]12CC[C@H]3[C@@H](CCC4=CC(=O)CC[C@@]43C)[C@@H]1CC[C@@H]2O [testosterone, Testosterone]
- retest period [5]: 5 years
- testosterone levels in the gel ([6]; DMI used in conjunction with the other excipients): ≥ 8.0%
- testosterone dissolved by solvent alone ([6]; Diethyleneglycol ethyl ether alone): more than 10%
- testosterone dissolved by solvent ([6]; Dimethyl isosorbide (DMI)): more than 12%
- solubility ([6]; acetone and isopropanol): soluble
- amount an aqueous solution can contain ([6]; aqueous solution): 0.002 mg per 100 µL
- solubility of testosterone in oils ([6]; castor oil): up to 4%
- amount a castor oil solution can contain ([6]; castor oil solution): up to 4.5 mg per 100 µL
- solubility of testosterone in oils ([6]; corn oil): 0.5%
- solubility of testosterone in oils ([6]; cottonseed oil): 0.7%
- solubility of testosterone in oils ([6]; isopropylmyristate): 0.8%
- solubility ([6]; methanol and ethanol): freely soluble
- solubility ([6]; n-heptane): insoluble
- Testosterone solubility in the oil based gel ([6]; oil based TBS-1A gel (so in the source)): about 4.5%
- solubility of testosterone in oils ([6]; peanut oil): 0.5%
- solubility of testosterone in oils ([6]; soybean oil): 0.6%
- pKa [7]: no pKa value in the range 1-14
- testosterone remaining unbound (free) ([8]; in men): about 2%
- testosterone remaining unbound (free) ([8]; in women): up to 3%
